Measured values taken from patent US9260455B2, “Alkyl-substituted hexahydropyrano[3,4-d][1,3]thiazin-2-amine compounds” (Pfizer Inc., priority 2012, dated 2016).
Read-outs that look alike come from different tables or passages of the source.

Legend:
[1] = test system: H4 human neuroglioma cells over-expressing the wild-type human APP695; test: sAPPβ Whole-Cell Assay (in vitro sAPPb assay); type: cell-based; details: read-out: sAPPβ Whole-Cell Assay IC50
Description: Whole Cell Assay (In Vitro sAPPb Assay):
H4 human neuroglioma cells over-expressing the wild-type human APP695 are treated for 18 hours with compound in cell growth media having a final concentration 1% DMSO. sAPPβ levels are measured using TMB-ELISA with capture APP N-terminal antibody (Affinity BioReagents, OMA1-03132), wild-type sAPPβ specific reporter p192 (Elan), and tertiary anti rabbit-HRP (GE Healthcare).

[2] = target: BACE2 (Homo sapiens (Human), UniProt Q9Y5Z0); test: BACE2 Cell-free Assay; type: biochemical; details: fluorescence polarization; 2.5 nM BACE2, 150 nM peptide substrate, pH 4.5, 3 hours at 37° C.; geometric mean
Sequence of BACE2 (Q9Y5Z0 63-518): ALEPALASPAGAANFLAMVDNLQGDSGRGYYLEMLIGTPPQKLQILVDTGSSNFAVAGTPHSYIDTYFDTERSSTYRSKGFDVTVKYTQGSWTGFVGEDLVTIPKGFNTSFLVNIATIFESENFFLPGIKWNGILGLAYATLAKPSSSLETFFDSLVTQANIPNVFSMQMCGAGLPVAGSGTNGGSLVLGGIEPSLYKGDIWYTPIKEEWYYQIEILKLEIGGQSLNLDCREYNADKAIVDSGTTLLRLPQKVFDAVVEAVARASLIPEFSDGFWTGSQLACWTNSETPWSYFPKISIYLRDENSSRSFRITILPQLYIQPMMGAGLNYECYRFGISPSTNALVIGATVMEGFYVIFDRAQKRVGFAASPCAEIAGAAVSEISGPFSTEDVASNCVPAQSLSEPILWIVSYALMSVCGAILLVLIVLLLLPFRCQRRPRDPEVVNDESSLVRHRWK
Description: BACE2 Assay: This assay measures the inhibition of the BACE2 enzyme as it cleaves a non-native peptide. […] The substrate is Biotin-[…](Oregon green)-KK-OH. The BACE2 enzyme is available from Enzo Life Sciences (Cat #BML-SE550). Compounds are incubated in a 1⁄2 log dose response curve from a top concentration of 100 μM with BACE2 enzyme and the biotinylated fluorescent peptide in 384-well black plates (Thermo Scientific #4318). […] Plates are covered and incubated for 3 hours at 37° C. The reaction is stopped with the addition of 30 μL of 1.5 μM Streptavidin (Pierce, #21125). After a 10 minute incubation at room temperature, plates are read on a PerkinElmer Envision for fluorescent polarization (Ex485 nm/Em530 nm). The activity of the beta-secretase enzyme is detected by changes in the fluorescence polarization that occur when the substrate is cleaved by the enzyme.

[3] = target: BACE1 (Homo sapiens (Human), UniProt P56817); test: BACE1 Cell-Free Assay; type: biochemical; details: fluorescence polarization; 0.1 nM BACE1, 150 nM peptide substrate, pH 4.5, 3 hours at 37° C.; geometric mean
Sequence of BACE1 (P56817 46-457): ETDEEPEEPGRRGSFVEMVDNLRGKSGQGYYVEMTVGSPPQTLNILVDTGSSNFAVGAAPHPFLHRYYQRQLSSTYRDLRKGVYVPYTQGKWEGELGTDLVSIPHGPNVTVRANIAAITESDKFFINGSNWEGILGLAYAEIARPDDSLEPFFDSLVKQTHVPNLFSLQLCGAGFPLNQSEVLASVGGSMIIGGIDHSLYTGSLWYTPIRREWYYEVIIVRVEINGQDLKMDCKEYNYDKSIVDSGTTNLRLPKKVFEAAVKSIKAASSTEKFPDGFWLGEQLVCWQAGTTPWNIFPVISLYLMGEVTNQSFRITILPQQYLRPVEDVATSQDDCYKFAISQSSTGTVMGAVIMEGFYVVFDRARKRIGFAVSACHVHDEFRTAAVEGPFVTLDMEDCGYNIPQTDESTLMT

[4] = H4 cells, 18 hours with compound, sAPPβ by TMB-ELISA, geometric mean

| Structure (SMILES) | IC50 [1, 4] [nM] | IC50 [2] [nM] | IC50 [3] [nM] | IC50 ([1]; 18 h) [nM] |
| --- | --- | --- | --- | --- |
| C[C@H]1SC(N)=N[C@@]2(c3ccc(F)cc3F)CO[C@@H](CF)C[C@@H]12 [Example 1, (4R,4aR,6R,8aS)-8a-(2,4-Difluorophenyl)-6-(fluoromethyl)-4-methyl-4,4a,5,6,8,8a-hexahydropyrano[3,4-d][1,3]thiazin-2-amine] | 61.4 | 1560 | 805 | – |
| COC[C@H]1C[C@H]2[C@@H](C)SC(N)=N[C@@]2(c2ccc(F)cc2F)CO1 [Example 2, (4R,4aR,6R,8aS)-8a-(2,4-Difluorophenyl)-6-(methoxymethyl)-4-methyl-4,4a,5,6,8,8a-hexahydropyrano[3,4-d][1,3]thiazin-2-amine] | 31.9 | 2310 | 737 | – |
| CCOC[C@H]1C[C@H]2[C@@H](C)SC(N)=N[C@@]2(c2ccc(F)cc2F)CO1 [Example 5, (4R,4aR,6R,8aS)-8a-(2,4-Difluorophenyl)-6-(ethoxymethyl)-4-methyl-4,4a,5,6,8,8a-hexahydropyrano[3,4-d][1,3]thiazin-2-amine] | – | 274 | 613 | 39 |
| CC(C)OC[C@H]1C[C@H]2[C@@H](C)SC(N)=N[C@@]2(c2ccc(F)cc2F)CO1 [Example 6, (4R,4aR,6R,8aS)-8a-(2,4-Difluorophenyl)-4-methyl-6-[(propan-2-yloxy)methyl]-4,4a,5,6,8,8a-hexahydropyrano[3,4-d][1,3]thiazin-2-amine] | 42.9 | 5080 | 718 | – |

Now from value to compound, other results behind:

| IC50 [1, 4] [nM] | IC50 [2] [nM] | IC50 [3] [nM] | Structure (SMILES) | IC50 ([1]; 18 h) [nM] |
| --- | --- | --- | --- | --- |
| 37.2 | 1140 | – | C[C@H]1C[C@H]2CSC(N)=N[C@@]2(c2ccc(F)cc2F)CO1 [Example 3, (4aR,6S,8aS)-8a-(2,4-Difluorophenyl)-6-methyl-4,4a,5,6,8,8a-hexahydropyrano[3,4-d][1,3]thiazin-2-amine] | – |
| – | 2140 | – | NC1=N[C@@]2(c3ccc(F)cc3F)CO[C@@H](C(F)F)C[C@H]2CS1 [Example 4, (4aR,6R,8aS)-6-(Difluoromethyl)-8a-(2,4-difluorophenyl)-4,4a,5,6,8,8a-hexahydropyrano[3,4-d][1,3]thiazin-2-amine] | – |
| 20.6 | – | – | CC(C)C[C@H]1C[C@H]2CSC(N)=N[C@@]2(c2ccc(F)cc2F)CO1 [Example 7, (4aR,6S,8aS)-8a-(2,4-Difluorophenyl)-6-(2-methylpropyl)-4,4a,5,6,8,8a-hexahydropyrano[3,4-d][1,3]thiazin-2-amine] | – |
| 30 | 1630 | – | COC[C@H]1C[C@H]2CSC(N)=N[C@@]2(c2ccc(F)cc2F)CO1 [Example 8, (4aR,6R,8aS)-8a-(2,4-Difluorophenyl)-6-(methoxymethyl)-4,4a,5,6,8,8a-hexahydropyrano[3,4-d][1,3]thiazin-2-amine] | – |
